The text below walks through data of article PMC6271716, “Design, Synthesis and SAR Studies of NAD Analogues as Potent Inhibitors towards CD38 NADase” (Molecules, 2014).

Usually IC50 stands for the midpoint of a concentration-inhibition curve.

The target in one experiment is T1, CD38 NADase (Homo sapiens, UniProt P28907, N100D/N164D/N209D/N219D).
T1 construct: pPICZαA carrying the C-terminus of CD38 (AA46-300, with the four glycosylation sites mutated); made in house; host or cells: Pichia pastoris X33 (pPICZαA vector)
T1 sequence (P28907 46-300 N100D/N164D/N209D/N219D): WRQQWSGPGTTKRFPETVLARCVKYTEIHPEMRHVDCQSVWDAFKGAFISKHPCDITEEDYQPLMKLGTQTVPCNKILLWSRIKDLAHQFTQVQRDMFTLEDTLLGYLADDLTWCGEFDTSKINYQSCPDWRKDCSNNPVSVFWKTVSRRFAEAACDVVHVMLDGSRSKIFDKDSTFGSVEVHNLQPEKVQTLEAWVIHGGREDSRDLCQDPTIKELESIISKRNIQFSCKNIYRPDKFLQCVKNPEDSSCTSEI
Briefly: Enzyme activity assay: inhibition of the NAD-glycohydrolase (NADase) activity of recombinant CD38 (NAD cycling assay). The experiment is classed as biochemical. To be noted: recombinant CD38 0.3 ng, 2 h preincubation at room temperature, NAD 2.5 µM. The protocol: Enzyme inhibition assays. The inhibitory activities to CD38 NADase of NAD analogues were evaluated by the method reported before. In this method, the inhibitions of NADase activities were calculated from the decrease of the NAD content.
Recombinant CD38, produced with a yeast expression system (Invitrogen, Carlsbad, CA, USA) was used to prepare the recombinant CD38 as reported previously. Briefly, pPICZαA carrying the C-terminus of CD38 (AA46-300, with the four glycosylation sites mutated, N100D, N164D, N209D and N219D) was transformed Pichia pastoris yeast, X33. The recombinant CD38 was induced by methanol and purified by phenylsepharose chromatography and cation exchange chromatography (SP column, GE Healthcare, Little Chalfont, UK). All the chemicals used in the enzymatic assays were purchased from Sigma (Santa Clara, CA, USA).
To study the inhibition of the NAD-glycohydrolase (NADase) activity of CD38 by the compounds, an enzymatic assay was performed. Briefly, different concentrations of the compound were mixed with recombinant CD38 (0.3 ng) and bovine serum albumin (1 µg) in a 16 µL-reaction mixture, then incubated in the dark for 2 hours at room temperature. NAD was added to the mixture to a final concentration of 2.5 µM to start the reaction. Aliquots (4 µL) of the reaction mixtures were withdrawn at 0, 4, 8 and 12 min, and the reaction was stopped by adding 4 µL of 0.6 M HCl, followed by neutralization with 8 µL of 0.5 M phosphate buffer, pH 8. The subsequent cycling reaction was conducted in 96-well plate with 16 µL of the sample mixed with 100 µL of the reagent containing 2% ethanol, 100 µg/mL alcohol dehydrogenase, 20 µM resazurin, 11 µg/mL diaphorase, 10 µM flavin mononucleotide and 100 mM sodium phosphate, pH 7. The cycling reaction was allowed to proceed for 10 min and the rate of fluorescence increase of resorufin (with excitation at 544 nm and emission at 590 nm) was measured using the Infinite M200 fluorescence plate reader (TECAN, Grödig, Austria). The relative NAD content was measured from the slope of fluorescence increase and the NAD-glycohydrolase activity was calculated from the decrease of NAD content at 0, 4, 8 and 12 min after the reaction started. As a control, each compound was directly added to the cycling reaction system with corresponding concentration to evaluate the potential interference to the cycling assay itself. IC50 values of inhibitors were calculated by the GraphPad Prism 5 software (GraphPad Software, Inc., La Jolla, CA, USA).
For `C[C@@]1(F)[C@H](O)[C@@H](COP(=O)(O)CP(=O)(O)OC[C@H]2O[C@@H]([n+]3cccc(C(N)=O)c3)[C@](C)(F)[C@@H]2O)O[C@H]1[n+]1cccc(C(N)=O)c1` [Compound 22, Bis(2′-deoxy-2′-fluoro-2′-methyl-β-nicotinamide)-methylenediphosphonate], the “IC50, inhibitory activities of CD38 NADase” value is “n.s”.

The same experiment, now with this note: recombinant CD38 0.3 ng, 2 h preincubation at room temperature, NAD 2.5 µM; read-out: IC50, inhibitory activities of CD38 NADase.
Turning to `CC1(F)C(O)C(COP(=O)([O-])OP(=O)(O)OCC2OC(n3cnc4c(N)ncnc43)C(O)C2O)OC1[n+]1cccc(C(N)=O)c1` (stereo not drawn) [Compound 7, 2′-Deoxy-2′-fluoro-2′-methyl-β-nicotinamide adenine dinucleotide], the half-inhibitory concentration (IC50) stood at 1810 µM.

Take `NC(=O)c1ccc[n+]([C@@H]2O[C@H](COP(=O)(O)O)[C@@H](O)[C@@H]2F)c1` [Compound 8, 2′-deoxy-2′-fluoroarabinosyl-β-nicotinamide mononucleotide, reference compound]: the concentration for half-maximal inhibition (IC50) was determined as 0.297 µM.

Regarding `NC(=O)c1ccc[n+](C2OC(CSP(=O)(O)OP(=O)([O-])OCC3OC(n4cnc5c(N)ncnc54)C(O)C3O)C(O)C2F)c1` (stereo not drawn) [Compound 10, 2′-Deoxy-2′-fluoro-5′-thio-phosphate-arabinofuranoside-β-nicotinamide adenine dinucleotide], the IC50 came out at 0.341 µM.

Turning to `NC(=O)c1ccc[n+](C2OC(COP(=O)([O-])OP(=O)(O)OP(=O)(O)OCC3OC(n4cnc5c(N)ncnc54)C(O)C3O)C(O)C2F)c1` (stereo not drawn) [Compound 11, P^1-(Adenosine)-P^3-(2′-deoxy-2′-fluoro-β-nicotinamide arabinofuranoside) triphosphate], the half-inhibitory concentration (IC50) is 1.15 µM.

As to `NC(=O)c1ccc[n+](C2OC(COP(=O)([O-])OP(=O)(O)OCC3OC(n4cnc5c(=O)[nH]cnc54)C(O)C3O)C(O)C2F)c1` (stereo not drawn) [Compound 12, 2′-Deoxy-2′-fluoro-arabinosyl-β-nicotinamide hypoxanthine dinucleotide], the IC50 stood at 0.109 µM.

Regarding `NC(=O)c1ccc[n+](C2OC(COP(=O)([O-])OP(=O)(O)OCC3OC(n4cnc5c(=O)[nH]c(N)nc54)C(O)C3O)C(O)C2F)c1` (stereo not drawn) [Compound 13, 2′-Deoxy-2′-fluoro-arabinosyl-β-nicotinamide guanine dinucleotide], the half-inhibitory concentration (IC50) came out at 0.0893 µM.

With `COc1ncnc2c1ncn2C1OC(COP(=O)(O)OP(=O)([O-])OCC2OC([n+]3cccc(C(N)=O)c3)C(F)C2O)C(O)C1O` (stereo not drawn) [Compound 19, 2′-Deoxy-2′-fluoro-arabinosyl-β-nicotinamide 6-O-methyl-hypoxanthine dinucleotide], the IC50 amounted to 0.133 µM.

For `NC(=O)c1ccc[n+]([C@@H]2O[C@H](COP(=O)(O)OP(=O)(O)OC[C@H]3O[C@@H]([n+]4cccc(C(N)=O)c4)[C@@H](F)[C@@H]3O)[C@@H](O)[C@@H]2F)c1` [Compound 20, Bis(2′-deoxy-2′-fluoro-β-nicotinamide-arabinosyl) pyrophophate], the IC50 turned out to be 0.575 µM.

Consider `NC(=O)c1ccc[n+]([C@@H]2O[C@H](COP(=O)(O)CP(=O)(O)OC[C@H]3O[C@@H]([n+]4cccc(C(N)=O)c4)[C@@H](F)[C@@H]3O)[C@@H](O)[C@@H]2F)c1` [Compound 21, Bis(2′-deoxy-2′-fluoro-β-nicotinamide-arabinosyl)-methylenediphosphonate], for which the IC50 came out at 7.98 µM.

Consider `NC(=O)c1ccc[n+]([C@@H]2O[C@H](COP(=O)([O-])OP(=O)(O)OC[C@H]3O[C@@H](n4cnc5c(N)ncnc54)[C@H](O)[C@@H]3O)[C@@H](O)[C@@H]2F)c1` [Compound 23, 2′-deoxy-2′-fluoroarabinosyl-β-nicotinamide adenine dinucleotide, reference compound], for which the IC50 amounted to 0.0611 µM.

Still in this experiment, the particulars now being: recombinant CD38, NAD 2.5 µM.
Take `CC1(F)C(O)C(COP(=O)([O-])OP(=O)(O)OCC2OC(n3cnc4c(N)ncnc43)C(O)C2O)OC1[n+]1cccc(C(N)=O)c1` (stereo not drawn) [Compound 7, 2′-Deoxy-2′-fluoro-2′-methyl-β-nicotinamide adenine dinucleotide]: the “inhibition of CD38 NADase, in words” value is reported as “weak inhibition”.
